# Reference: patent US20050019355A1, “Skin antiseptic and disinfectant” (priority 2003, published 2005)
# System: E. coli (ATCC 25922)
# Assay: Lower effective concentration of ethyl lactate, modification of AOAC Method 956.17
# Assay type: cell-based
# Settings: 15% solution of ethyl lactate, 10 minutes exposure of E. coli
# Description: Using a modification of AOAC Method 956.17, the lower effective concentration for ethyl lactate was tested against E. coli (ATCC 25922) at three reaction times at varying concentrations of ethyl lactate. […] [table]
structure (smiles),measurement,value
CCOC(=O)C(C)O (stereo not shown) [ethyl lactate],Bacterial growth after exposure,eliminated bacterial growth
